Measurements taken from ChEMBL document CHEMBL1127217, “Enantioselective acetylation of primary amines by Cylindrocarpon radicicola” (Bioorg Med Chem Lett, 1993).

Experiments:
[1] = system: Ilyonectria destructans; experiment: N-Acylation of compound was determined after 22 hr incubation at 250 mg/mL concentration using Cylindrocarpon radicicola resting cells and residual amine was evaluated
[2] = system: Ilyonectria destructans; experiment: N-Acylation of amine was determined after 22 hr incubation at 250 mg/mL concentration using Cylindrocarpon radicicola resting cells to amide expressed as enantioselectivity coefficient (amine/amide): 48/52
[3] = system: Ilyonectria destructans; experiment: N-Acylation of amine was determined after 22 hr incubation at 250 mg/mL concentration using Cylindrocarpon radicicola resting cells to amide expressed as enantioselectivity coefficient (amine/amide): 52/48
[4] = system: Ilyonectria destructans; experiment: N-Acylation of amine was determined after 22 hr incubation at 250 mg/mL concentration using Cylindrocarpon radicicola resting cells to amide expressed as enantioselectivity coefficient (amine/amide): 59/41
[5] = system: Ilyonectria destructans; experiment: N-Acylation of amine was determined after 22 hr incubation at 250 mg/mL concentration using Cylindrocarpon radicicola resting cells to amide expressed as enantioselectivity coefficient (amine/amide): 53/47
[6] = system: Ilyonectria destructans; experiment: N-Acylation of amine was determined after 22 hr incubation at 250 mg/mL concentration using Cylindrocarpon radicicola resting cells to amide expressed as enantioselectivity coefficient (amine/amide): 65/35

SMILES | Residual amine (ee) [1] [%] | also measured
NC(Cc1ccccc1)c1ccccc1 (stereo not given) | 80 | Enantioselectivity coefficient [2]: 48
NC1CCc2ccccc21 (stereo not given) | 0 | Enantioselectivity coefficient [3]: 52
NC(c1ccccc1)c1ccc(Cl)cc1 (stereo not given) | 0 | Enantioselectivity coefficient [4]: 59
CC(N)COc1ccccc1 (stereo not given) | 95 | Enantioselectivity coefficient [5]: 53
CC(CN)c1ccccc1 (stereo not given) | 0 | Enantioselectivity coefficient [6]: 65
